Data published in patent publication US20250049757A1, “COMBINATORY THERAPY FOR CANCER USING BIPHENYL COMPOUND AND IMMUNE CHECKPOINT MOLECULE REGULATOR” (Taiho Pharmaceutical Co. Ltd., priority 2021, published 2025).

What was measured:
Format in all cases: in vivo
[1] = test system: mouse colon cancer cell line MC38; test: Combination of Compound A and anti-mouse PD-1 antibody in MC38 transplanted wild type C57BL/6JJcl mice (Example 3); conditions: Aspin-Welch's t-test
Method: The MC38 cell suspension was transplanted subcutaneously at 2.0×10^6 cells/0.1 ml to the right chest of 6-week-old C57BL/6JJcl mice (CLEA Japan, Inc.).
(§1) The tumor was grown until reaching a TV of 50 to 300 mm^3 after the transplantation. Degimatic Caliper was used for tumor diameter measurement. The major diameter and the minor diameter of the tumor were measured, and TV was calculated from the following equation.
(§2) TV (mm^3)=major diameter (mm)×minor diameter (mm)×minor diameter (mm)/2
By a stratified random allocation method using TV as an index, 10 mice were allocated to each group. The day when grouping was performed was defined as Day 0.
An electronic balance for animals was used for body weight measurement. The body weight change ratio on the nth day (BWCn) was calculated from the body weight on the nth day (BWn) in accordance with the following equation.
(§3) Body weight change ratio BWCn (%)=(BWn−BW0)/BW0×100
An appropriate amount of water for injection described in the Japanese Pharmacopeia was added for adjusting hypromellose concentration to 0.5 w/v %, and the mixture was then stirred with a stirrer to completely dissolve hypromellose, to prepare a 0.5% aqueous hypromellose solution.
On the first day of administration (day 1), the diluted product was intraperitoneally administered with the dose of 0.05 mg/body of the anti-mouse PD-1 antibody.

[2] = test system: mouse colon cancer cell line MC38; test: Antitumor effect in MC38 transplanted wild type (immune proficient) C57BL/6JJcl mice (Example 2)
Method: (§4) The MC38 cell suspension was transplanted subcutaneously at 2.0×10^6 cells/0.1 ml to the right chest of 6-week-old C57BL/6JJcl mice (CLEA Japan, Inc.) or CB17/Icr-Prkdc[scid]/CrlCrlj (Charles River Laboratories Japan Inc.). CB17/Icr-Prkdc[scid]/CrlCrlj mice are mice with immune deficiency due to lack of Tcells and B-cells in the peripheral blood.
as §1, §2
(§5) By a stratified random allocation method using TV as an index, ten C57BL/6JJcl mice were allocated to each group, and five CB17/Icr-Prkdc [scid]/CrlCrlj mice were allocated to each group. The day when grouping was performed was defined as Day 0. An electronic balance for animals was used for body weight measurement. The body weight change ratio on the nth day (BWCn) was calculated from the body weight on the nth day (BWn) in accordance with the following equation.
as §3
(§6) An appropriate amount of water for injection described in the Japanese Pharmacopeia was added for adjusting hypromellose concentration to 0.5 w/v %, and the mixture was then stirred with a stirrer to completely dissolve hypromellose, to prepare a 0.5% aqueous hypromellose solution. Benzoic acid salt of Compound A was ground with an agate mortar, and then suspended to a predetermined concentration with the 0.5% aqueous hypromellose solution, and ultrasonic treatment was performed to obtain a homogeneous suspension. The suspension containing Compound A was orally administered once a day for 21 consecutive days at a dose of 25 mg/kg/day. The dosage is indicated based on the free form of the Compound A.

[3] = test system: mouse colon cancer cell line MC38; test: Antitumor effect in MC38 transplanted immune deficient CB17/Icr-Prkdc[scid]/CrlCrlj mice (Example 2)
Method: as §4, §1, §2, §5, §3, §6

[4] = test system: mouse colon cancer cell strain MC38; test: Flow cytometric analysis of tumor infiltrating leucocytes in MC38 transplanted mice (Example 1); conditions: Day 7, tumor infiltrating leucocytes, Compound A 25 mg/kg/day po 6 days, Dunnett test
Method: The mouse colon cancer cell strain MC38 was obtained from Dr. Yoshihiro Hayakawa (University of Toyama, Toyama, Japan). The MC38 cell strain was subjected to culture in an RPMI 1640 medium containing 10% fetal bovine serum and then to subculture in an incubator at 37° C. in the presence of 5% CO2 at a frequency of once or twice a week.
The MC38 cell suspension was transplanted subcutaneously at 1.5×10^6 cells/0.1 ml to the right chest of 6-week-old C57BL/6JJcl mice (CLEA Japan, Inc.).
The tumor was grown until reaching a tumor volume (TV) of 80 to 230 mm^3 after the transplantation. Degimatic Caliper was used for tumor diameter measurement. The major diameter and the minor diameter of the tumor were measured, and TV was calculated from the following equation.
as §2
By a stratified random allocation method using TV as an index, 5 animals were allocated to each group. The day when grouping (n=5) was performed was defined as Day 0. […]
For detecting expression of immunity-related factors, flow cytometric analysis was performed for immunological monitoring. […] Thereafter, the isolated lymphocytes were stained with antibodies below, and then, analyzed using Flow Cytometer FACSVerse (BD Bioscience). […]

[5] = wild type C57BL/6JJcl mice, 25.0 mg/kg/day qd Day 1-21 po
[6] = immune deficient CB17/Icr-Prkdc[scid]/CrlCrlj mice, 25.0 mg/kg/day qd Day 1-21 po

## CC(C)(O)Cc1ccc(-c2ccc(C(=O)N3CC[C@H](N)C3)cc2-c2ccc(C#N)c(F)c2)c(F)c1 [Compound A, 4-[5-[(3S)-3-aminopyrrolidine-1-carbonyl]-2-[2-fluoro-4-(2-hydroxy-2-methyl-propyl)phenyl]phenyl]-2-fluoro-benzonitrile]
[1]
  antitumor effect: TV on Day 22 as compared to the control group: significantly lower TV
[2]; [5]
  Body weight change Day 22 Mean ± SE: 2.6 ± 1.2%
  Tumor volume Day 22 Mean ± SE: 969.3 ± 114.7 mm^3
[2]; wild type mice, Aspin-Welch's t-test
  antitumor effect: TV on Day 22 as compared to the control group: significantly lower TV
[3]; [6]
  Body weight change Day 22 Mean ± SE: 9.2 ± 4.2%
  Tumor volume Day 22 Mean ± SE: 2431.6 ± 359.7 mm^3
[3]; immune deficient mice, Aspin-Welch's t-test
  antitumor effect: TV on Day 22 as compared to the control group: didn't exhibit any antitumor effect
[4]
  ratio of gMDSC (CD45 positive, CD90.2 negative, CD11b positive, Ly6G positive cells) in leucocytes as compared to the control group: significantly lower
